Reference: the supplement of paper PMC13380429

Tests used:
Caco-2 [1] = assay: drug sensitivity score (DSS) for viability; higher = more toxic; extreme values may be limits of the assay; conditions: 72 h
HepG2 [2] = assay: as above; conditions: 72 h
Calu-3 [3] = assay: as above; conditions: 72 h
Vero E6 [4] = assay: as above; conditions: 72 h
U2OS [5] = assay: as above; conditions: 72 h
A549-ACE2 [6] = assay: drug-induced phospholipidosis relative to tamoxifen; higher = more phospholipidosis
Caco-2 [7] = assay: cell viability relative to DMSO; higher = less toxic; conditions: 72 h
HepG2 [8] = assay: as above; conditions: 72 h
Calu-3 [9] = assay: as above; conditions: 72 h
Vero E6 [10] = assay: as above; conditions: 72 h
U2OS [11] = assay: as above; conditions: 72 h
[12] = tested on: A549-ACE2 infected with SARS-CoV-2; assay: cell count relative to DMSO; higher = less toxic; conditions: 24 h
[13] = tested on: A549-ACE2 infected with SARS-CoV-2; assay: morphology score (similarity to uninfected cells); higher = more like uninfected cells; conditions: 24 h
[14] = tested on: A549-ACE2 infected with SARS-CoV-2; assay: SARS-CoV-2 infection rate relative to DMSO; higher = more infection; conditions: 24 h
A549-ACE2 [15] = assay: phospholipidosis EC50; higher = less potent phospholipidosis inducer; conditions: 24 h
Caco-2 [16] = assay: relative viability EC50 (midpoint between 100% and the lowest measured viability); higher = less toxic; conditions: 72 h
HepG2 [17] = assay: as above; conditions: 72 h
Calu-3 [18] = assay: as above; conditions: 72 h
Vero E6 [19] = assay: as above; conditions: 72 h
U2OS [20] = assay: as above; conditions: 72 h

CC(C)c1cnn2c(NCc3ccccc3)cc(NCCCCCCN)nc12 [BS-181]
Conditions | drug sensitivity score | phospholipidosis EC50 [µM] | relative viability EC50 [µM]
A549-ACE2 [15] | – | 15 | –
Caco-2 [1] | 1.7 | – | –
Caco-2 [16] | – | – | > 10
Calu-3 [3] | 0 | – | –
Calu-3 [18] | – | – | > 10
HepG2 [2] | 0.9 | – | –
HepG2 [17] | – | – | > 10
U2OS [5] | 0 | – | –
U2OS [20] | – | – | > 10
Vero E6 [4] | 0.4 | – | –
Vero E6 [19] | – | – | > 10

drug-induced phospholipidosis [%], A549-ACE2 [6]
Conditions | 0.3 µM | 0.833333 µM | 3.33333 µM | 6.66667 µM | 10 µM | 30 µM
24 h | 0.84 | 1.04 | 6.25 | 11.9 | 29.1 | 83.9
48 h | 1.54 | 0.53 | 4.06 | 7 | 14.2 | 37.6
72 h | 2.87 | 1.74 | 3.1 | 5.35 | 9.65 | 19.3

Conditions | SARS-CoV-2 infection rate, [14] [%] | cell count, [12] [%] | cell viability, Caco-2 [7] [%] | cell viability, Calu-3 [9] [%] | cell viability, HepG2 [8] [%] | cell viability, U2OS [11] [%] | cell viability, Vero E6 [10] [%] | morphology score, [13]
1 nM | – | – | 101 | 100 | 97 | 102 | 98.5 | –
10 nM | – | – | 84 | 106 | 92 | 94.8 | 97.6 | –
100 nM | – | – | 122 | 99.9 | 98.1 | 101 | 99 | –
0.3 µM | 99 | 102 | – | – | – | – | – | 0.12
1000 nM | – | – | 90.2 | 115 | 90.3 | 96.1 | 94.6 | –
3 µM | 37 | 115 | – | – | – | – | – | 0.87
10000 nM | – | – | 79 | 87.3 | 80 | 91 | 86.1 | –
10 µM | 9 | 101 | – | – | – | – | – | 0.93
30 µM | 25 | 47 | – | – | – | – | – | 0.26

C(#Cc1nc2ncccc2nc1OCCN1CCCC1)c1ccccc1 [GK921]
Conditions | drug sensitivity score | relative viability EC50 [µM]
Caco-2 [1] | 5.4 | –
Caco-2 [16] | – | 3.13
Calu-3 [3] | 6.4 | –
Calu-3 [18] | – | 2.61
HepG2 [2] | 9.4 | –
HepG2 [17] | – | 1.53
U2OS [5] | 9.7 | –
U2OS [20] | – | 1.46
Vero E6 [4] | 5.3 | –
Vero E6 [19] | – | 3.35

drug-induced phospholipidosis [%], A549-ACE2 [6]
Conditions | 24 h | 48 h | 72 h
0.3 µM | 2.77 | 8.46 | 11.7
0.833333 µM | 6.24 | 5.53 | 2.54

Conditions | SARS-CoV-2 infection rate, [14] [%] | cell count, [12] [%] | cell viability, Caco-2 [7] [%] | cell viability, Calu-3 [9] [%] | cell viability, HepG2 [8] [%] | cell viability, U2OS [11] [%] | cell viability, Vero E6 [10] [%] | morphology score, [13]
1 nM | – | – | 100 | 98.7 | 92.4 | 97.1 | 97.2 | –
10 nM | – | – | 98.2 | 90.9 | 99.3 | 95.7 | 97.6 | –
100 nM | – | – | 101 | 93.1 | 102 | 99.2 | 94.9 | –
0.1 µM | 100 | 101 | – | – | – | – | – | 0.03
0.3 µM | 102 | 102 | – | – | – | – | – | -0.05
1000 nM | – | – | 99.5 | 93.3 | 74.5 | 72.2 | 103 | –
1 µM | 101 | 95 | – | – | – | – | – | 0.02
3 µM | 53 | 86 | – | – | – | – | – | 0.48
10000 nM | – | – | 3.8 | 2.5 | -0.3 | -0.2 | 0 | –
